Source: publication PMC3070799 (Neuropharmacology, 2011)
pIC50: −log10 of the molar value.

Legend:
mouse 5-HT3AB = molecular target: T1, mouse 5-HT3AB (Mus musculus, UniProt P23979+Q9JHJ5); experiment: Granisetron competition binding
T1 construct: expressed in transfected cells
T1 sequence (P23979 24-483 isoform P23979-2 limits assumed): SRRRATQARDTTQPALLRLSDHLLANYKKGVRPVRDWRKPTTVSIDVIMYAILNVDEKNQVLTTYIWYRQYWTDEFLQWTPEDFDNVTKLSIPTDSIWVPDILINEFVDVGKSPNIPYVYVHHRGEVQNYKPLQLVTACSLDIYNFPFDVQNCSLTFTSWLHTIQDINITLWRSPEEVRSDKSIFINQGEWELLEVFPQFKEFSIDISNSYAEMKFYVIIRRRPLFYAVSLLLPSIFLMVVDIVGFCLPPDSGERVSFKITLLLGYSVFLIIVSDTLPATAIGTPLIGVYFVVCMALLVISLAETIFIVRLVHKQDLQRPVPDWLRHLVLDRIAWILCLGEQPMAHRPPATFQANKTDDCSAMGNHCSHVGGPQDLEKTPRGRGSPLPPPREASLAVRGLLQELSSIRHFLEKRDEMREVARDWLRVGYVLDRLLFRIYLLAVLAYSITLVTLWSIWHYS
T1 sequence (Q9JHJ5 22-437): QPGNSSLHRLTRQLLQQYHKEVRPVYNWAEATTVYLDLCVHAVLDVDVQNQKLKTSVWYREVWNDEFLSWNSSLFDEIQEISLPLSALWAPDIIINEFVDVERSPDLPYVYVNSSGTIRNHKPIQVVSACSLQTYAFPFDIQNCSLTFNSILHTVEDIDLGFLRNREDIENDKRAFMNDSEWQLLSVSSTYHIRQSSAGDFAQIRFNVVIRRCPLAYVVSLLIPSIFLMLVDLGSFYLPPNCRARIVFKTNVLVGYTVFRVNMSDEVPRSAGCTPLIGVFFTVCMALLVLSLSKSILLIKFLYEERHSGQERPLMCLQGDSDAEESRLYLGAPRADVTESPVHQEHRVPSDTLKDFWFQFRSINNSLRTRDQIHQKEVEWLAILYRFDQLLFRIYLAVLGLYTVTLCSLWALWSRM
Experimental: Competition binding (8 point) was performed on at least three separate plates of transfected cells. […] Reactions were incubated for at least 1 h at 4 °C and terminated by vacuum filtration using a Brandel cell harvester onto GF/B filters pre-soaked in 0.3% polyethyleneimine. Radioactivity was determined by scintillation counting using a Beckman BCLS6500 (Fullerton, California, USA). Data were analysed by iterative curve fitting (GraphPad Prism v3.02) according to the equation:(5) BL=Bmin+Bmax−Bmin/1+10^nH(logL50−logL) where L is the concentration of ligand present; BL is the binding in the presence of ligand concentration L; Bmin is the binding when L = 0; Bmax is the binding when L = ∞, L50 is the concentration of L which gives a binding equal to (Bmax + Bmin)/2; and nH is the Hill coefficient. Results are presented as mean ± S.E.M.. Statistical analysis was performed using ANOVA in conjunction with a Dunnett’s post-hoc test.

glycine α1 receptors = molecular target: glycine α1 receptors; parameters: method as in Yang et al., 2007; conditions: ref Yang et al., 2007; cited from earlier work
glycine α1β receptors = molecular target: glycine α1β receptors; parameters: method as in Yang et al., 2007; conditions: ref Yang et al., 2007; cited from earlier work
GABAA receptor = system: GABAA receptor; parameters: method as in earlier work; conditions: more potent than PTN; ref Chen et al., 2006; Curtis and Johnston, 1974; Yang et al., 2007; cited from earlier work
glycine α2 receptors = system: glycine α2 receptors; parameters: method as in earlier work; conditions: more potent than PTN; ref Chen et al., 2006; Curtis and Johnston, 1974; Yang et al., 2007; cited from earlier work

Row | Molecule | Displacement of granisetron (0.5 nM) (mouse 5-HT3AB; compound 2.5 mM) | Displacement of granisetron (0.5 nM) (mouse 5-HT3AB; compound 5 mM) | pIC50 (glycine α1 receptors) | pIC50 (glycine α1β receptors) | potency relative to PTN (GABAA receptor) | potency relative to PTN (glycine α2 receptors)
1 | CC(C)(C)[C@]1(O)CC2OC(=O)CC23C(=O)OC2OC(=O)[C@H](O)C231 (stereo partly shown) [BB, bilobalide] | not displaced | – | – | – | – | –
2 | C=C(C)[C@@H]1[C@H]2OC(=O)[C@@H]1[C@]1(O)C[C@H]3O[C@]34C(=O)O[C@H]2[C@]14C [PXN, picrotoxinin] | – | not displaced | ~5.30 | ~4.52 | ~50 fold | ~30 fold
3 | ginkgolide B [GB] | not displaced | – | – | – | – | –
